Measured values as given in patent US7771736B2, “Glyphosate formulations and their use for the inhibition of 5-enolpyruvylshikimate-3-phosphate synthase” (Monsanto Technology LLC, priority 2002, dated 2010).
Read-outs that look alike come from different tables or passages of the source.

Tests used:
maize EPSPS = assay: enzyme activity of maize EPSPS (HPLC radioassay, S3P and 14C-PEP) with oxalate or citrate in the presence and absence of glyphosate; format: biochemical; conditions: for effect on the inhibition of EPSPS by glyphosate (rate of catalytic activity on S3P and PEP): additive with 0, 0.6 or 6 mcM glyphosate, relative rate normalized to zero glyphosate
Procedure: These examples assessed the enzyme activity of maize EPSPS with increasing concentrations of oxalate (0, 0.06 mcM, 0.3 mcM, 1.5 mcM, 7.5 mcM and 37.5 mcM) in the presence and absence of glyphosate. Three different conditions (0, 0.6 mcM, and 6 mcM glyphosate) were studied. The assay consisted of incubating enzyme (9 mcg/mL final concentration in the assay) with S3P and ^14C-PEP. The conversion of labeled substrate to 5-enol-[^14C]-pyruvylshikimate-3-phosphate was determined by HPLC radioassay.
Initial velocities were calculated by multiplying fractional turnover per unit time by the initial concentration of the labeled substrate. The data are expressed as relative rates of the enzyme, where relative rate is the reaction rate at a given condition normalized to similar reaction with zero glyphosate.

[1] = Metal Ion Ca2+; cited from earlier work
different weed species = assay: herbicidal efficacy in whole plants / on different weed species; format: in vivo; conditions: for enhancement of glyphosate herbicidal efficacy: additive combined with glyphosate, whole plants / weed species
[2] = Metal Ion Mg2+; cited from earlier work
Cryptosporidium parvum = conditions: cited from earlier work
Plasmodium falciparum = Plasmodium falciparum (malaria); cited from earlier work
Toxoplasma gondii = conditions: cited from earlier work

| Compound | effect on the inhibition of EPSPS by glyphosate (rate of catalytic activity on S3P and PEP) (maize EPSPS) | Log K (Binding Constant) [1] | enhancement of glyphosate herbicidal efficacy (different weed species) | Log K (Binding Constant) [2] | growth inhibition of parasite (Cryptosporidium parvum) | growth inhibition of parasite (Plasmodium falciparum) | growth inhibition of parasite (Toxoplasma gondii) | effect on the inhibition of EPSPS by glyphosate (rate of catalytic activity on S3P and PEP) (maize EPSPS; listed as oxalate) | inhibitory effect on the enzyme on its own (maize EPSPS; without glyphosate) | herbicidal property by itself (different weed species; additive alone, enzyme studies and whole plant response) |
| --- | --- | --- | --- | --- | --- | --- | --- | --- | --- | --- |
| O=C(O)CC(O)(CC(=O)O)C(=O)O [Citric acid, citric acid] | did not have any effect on EPSPS inhibition by glyphosate | 3.45 | failed to show enhancement of glyphosate efficacy on different weed species | 3.45 |  |  |  |  |  |  |
| O=C(O)CNCP(=O)(O)O [glyphosate, N-phosphonomethyl glycine] |  |  |  |  | growth of these parasites can be inhibited | growth of these parasites can be inhibited | growth of these parasites can be inhibited |  |  |  |
| O=C(O)C(=O)O [Oxalic acid, oxalic acid] | enhance the inhibition of EPSPS by glyphosate | 2.46 | enhance the inhibition of EPSPS by glyphosate as well as its herbicidal efficacy in whole plants | 2.76 |  |  |  | enhanced the enzyme binding of glyphosate | do not have any inhibitory effect on the enzyme on their own | does not have any herbicidal property |
